The target in the test is DCN1 protein (Homo sapiens (Human), UniProt Q96GG9). Kind of test: Intact protein MS analysis with the RapidFire-TOF system (covalent adduct formation). The format is binding. Conditions: 400 nM DCN1, incubated at room temperature for 3 hours. The protocol: (§1) DCN1 protein, His-TEV-DCN1, were expressed in E. Coli. The His-tagged protein was first purified with an Ni-NTA column. The His-tag was cleaved using His-tag TEV protease and the His-tags were removed using a second Ni-NTA column. Protein purity was verified with SDS-PAGE and intact MS. DCN1 was dissolved in a buffer containing 25 mM Tris-HCl, 200 mM NaCl, and 1 mM DTT at 400 nM. 11 concentrations of compounds were added to the DCN1 solution and incubated at room temperature for 3 hours, unless otherwise specified. The reaction plates were quenched by adding 0.2% formic acid. Quenched assay plates were analyzed with an Agilent RapidFire 360 system connected to an Agilent 6545 Q-TOF mass spectrometer equipped with an AJS source. 10 μL of sample volume was loaded onto a custom packed cartridge (4 μL, PLRP-S 30 μm/1000 Å pore; Optimize Technologies) with loading buffer (ddH2O with 0.09% (vol/vol) formic acid and 0.01% (vol/vol) trifluoroacetic acid; 1.25 ml/min) for 6 seconds before being eluted directly into the mass spectrometer in elution buffer (80% acetonitrile with 0.09% (vol/vol) formic acid and 0.01% (vol/vol) trifluoroacetic acid; 0.5 ml/min) for 7 seconds. The cartridge was re-equilibrated with loading buffer for 1 second before collection of the next sample. The Q-TOF was operated in TOF-only positive ionization mode set to the following parameters: Gas Temp=350 C, Drying Gas=7 l/min, Nebulizer=50 psi, Sheath Gas Temp=400 C, Sheath Gas Flow=12 l/min, VCap=4000 V, Nozzle Voltage=1000 V, Fragmentor=125 V, Skimmer=65 V and Oct 1 RF Vpp=750V. Raw MS data files were deconvoluted and analyzed using the Agilent MassHunter Bioconfirm software package to identify both parent protein and expected compound adduct mass signatures.
Chain of DCN1 protein (Q96GG9 whole entry): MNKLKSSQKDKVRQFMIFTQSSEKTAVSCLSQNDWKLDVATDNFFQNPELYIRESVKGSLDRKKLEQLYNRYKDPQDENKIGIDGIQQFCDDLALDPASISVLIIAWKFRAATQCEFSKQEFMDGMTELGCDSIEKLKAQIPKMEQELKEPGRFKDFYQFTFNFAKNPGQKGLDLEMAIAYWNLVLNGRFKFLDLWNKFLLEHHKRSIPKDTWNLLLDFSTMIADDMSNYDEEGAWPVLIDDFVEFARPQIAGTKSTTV
An MS assay was performed to evaluate the ability of the compounds to covalently modify DCN-1.
as §1, with “Vcap=4000” for “VCap=4000”
Compound `CCN1C(=O)[C@@H](NC(=O)c2cccc(C(F)(F)F)c2)[C@@H](c2ccccc2NC(=O)CCl)c2c(C)nn(-c3ccccc3)c21` (racemic) [Compound I-191] yielded a maximum response (Emax) of 80 to 100%.

Consider `CCN1C(=O)[C@H](NC(=O)c2cccc(C(F)(F)F)c2)[C@@H](c2ccc(F)cc2NC(=O)CC#N)c2cnn(-c3ccccc3)c21` (racemic) [Compound I-187], for which the Emax was in the range of 0 to 30%.

Compound `CCN1C(=O)[C@@H](NC(=O)c2cccc(C(F)(F)F)c2)[C@@H](c2cccc(NC(=O)/C=C/CN3CCOCC3)c2)c2c(C)nn(-c3ccccc3)c21` (racemic) [Compound I-205] displayed an Emax of 0 to 30%.

On to `CCN1C(=O)[C@@H](NC(=O)c2cccc(C(F)(F)F)c2)[C@@H](c2cccc(NC(=O)C3=CCC3)c2)c2c(C)nn(-c3ccccc3)c21` [Compound I-202], for which the Emax was 0 to 30%.

In turn, `CCN1C(=O)[C@H](NC(=O)c2cccc(C(F)(F)F)c2)[C@@H](c2ccccc2NS(=O)(=O)CCl)c2cnn(-c3ccccc3)c21` (racemic) [Compound I-175] registered an Emax of 0 to 30%.

`CCN1C(=O)[C@@H](NC(=O)c2cccc(C(F)(F)F)c2)[C@@H](c2cccc(NC(=O)CCl)c2)c2c(C)nn(-c3ccccc3)c21` (racemic) [Compound I-203] came in with an Emax of 0 to 30%.

The compound `CCN1C(=O)[C@H](NC(=O)c2cccc(C(F)(F)F)c2)[C@@H](c2cccc(NC(=O)[C@H](C)Br)c2)c2c(C)nn(-c3ccccc3)c21` (mixture of isomers) [Compound I-180] registered an Emax of 80 to 100%.

With `CCN1C(=O)[C@@H](NC(=O)c2cccc(C(F)(F)F)c2)[C@@H](c2cccc(NC(=O)COc3c(F)c(F)cc(F)c3F)c2)c2c(C)nn(-c3ccccc3)c21` (racemic) [Compound I-206], the Emax is 0 to 30%.

Take `C#CC(=O)Nc1ccccc1[C@H]1c2cnn(-c3ccccc3)c2N(CC)C(=O)[C@@H]1NC(=O)c1cccc(C(F)(F)F)c1` (racemic) [Compound I-194]: the Emax lay within 80 to 100%.

Compound `C/C=C/C(=O)Nc1cccc([C@H]2c3c(C)nn(-c4ccccc4)c3N(CC)C(=O)[C@@H]2NC(=O)c2cccc(C(F)(F)F)c2)c1` (racemic) [Compound I-164] came in with an Emax of 0 to 30%.

Consider `CCN1C(=O)[C@H](NC(=O)c2cccc(C(F)(F)F)c2)[C@@H](c2ccccc2NC(=O)/C(C#N)=C/C2CC2)c2cnn(-c3ccccc3)c21` (racemic) [Compound I-179], for which the Emax is 80 to 100%.

The compound `CCN1C(=O)[C@H](NC(=O)c2cccc(C(F)(F)F)c2)[C@@H](c2ccccc2NC(=O)C2=CCCC2)c2cnn(-c3ccccc3)c21` (racemic) [Compound I-188] had an Emax of 0 to 30%.

Take `C=C(C)C(=O)Nc1ccccc1[C@H]1c2cnn(-c3ccccc3)c2N(CC)C(=O)[C@@H]1NC(=O)c1cccc(C(F)(F)F)c1` (racemic) [Compound I-183]: the Emax is 0 to 30%.

Turning to `CCN1C(=O)[C@@H](NC(=O)c2cccc(C(F)(F)F)c2)[C@@H](c2cccc(NC(=O)[C@H](C)Br)c2)c2c(C)nn(-c3ccccc3)c21` (mixture of isomers) [Compound I-204], the Emax lay within 0 to 30%.

As to `C=CS(=O)(=O)Nc1cccc([C@H]2c3c(C)nn(-c4ccccc4)c3N(CC)C(=O)[C@H]2NC(=O)c2cccc(C(F)(F)F)c2)c1` (racemic) [Compound I-186], the Emax is 30 to 80%.

As for `C=C(CN1CCOCC1)C(=O)Nc1cccc([C@H]2c3c(C)nn(-c4ccccc4)c3N(CC)C(=O)[C@H]2NC(=O)c2cccc(C(F)(F)F)c2)c1` (racemic) [Compound I-172], the “% Adduct Formation (MS Emax)” value was “+ (MS Emax % adduct formation greater than or equal to 0.0 and less than or equal to 30.0)”.

For `C=C(C)C(=O)Nc1ccccc1[C@H]1c2c(C)nn(-c3ccccc3)c2N(CC)C(=O)[C@@H]1NC(=O)c1cccc(C(F)(F)F)c1` (racemic) [Compound I-165], the Emax lay in the range of 0 to 30%.

On to `CCN1C(=O)[C@H](NC(=O)c2cccc(C(F)(F)F)c2)[C@@H](c2ccccc2NC(=O)/C=C/CN(C)C)c2cnn(-c3ccccc3)c21` (racemic) [Compound I-196], for which the Emax lay within 0 to 30%.

For the compound `CCN1C(=O)[C@H](NC(=O)c2cccc(C(F)(F)F)c2)[C@@H](c2ccccc2NC(=O)C(Cl)Cl)c2cnn(-c3ccccc3)c21` (racemic) [Compound I-198], the Emax is 0 to 30%.

In turn, `C#CC(=O)Nc1cccc([C@H]2c3c(C)nn(-c4ccccc4)c3N(CC)C(=O)[C@@H]2NC(=O)c2cccc(C(F)(F)F)c2)c1` (racemic) [Compound I-207] came in with an Emax of 80 to 100%.

On to `CCN1C(=O)[C@H](NC(=O)c2cccc(C(F)(F)F)c2)[C@@H](c2ccccc2NC(=O)[C@H](C)Cl)c2c(C)nn(-c3ccccc3)c21` (mixture of isomers) [Compound I-181], for which the “% Adduct Formation (MS Emax)” value was “++ (MS Emax % adduct formation greater than 30.0 and less than or equal to 80.0)”.

On to `CCN1C(=O)[C@H](NC(=O)c2cccc(C(F)(F)F)c2)[C@@H](c2ccccc2NC(=O)C2=CCC2)c2cnn(-c3ccccc3)c21` (racemic) [Compound I-195], for which the Emax was 0 to 30%.

Consider `C=C(C)C(=O)Nc1cccc([C@H]2c3c(C)nn(-c4ccccc4)c3N(CC)C(=O)[C@@H]2NC(=O)c2cccc(C(F)(F)F)c2)c1` (racemic) [Compound I-201], for which the Emax lay in the range of 0 to 30%.

Turning to `C=CS(=O)(=O)Nc1cccc([C@H]2c3c(C)nn(-c4ccccc4)c3N(CC)C(=O)[C@@H]2NC(=O)c2cccc(C(F)(F)F)c2)c1` (racemic) [Compound I-5], the Emax lay within 80 to 100%.

Compound `CCN1C(=O)[C@@H](NC(=O)c2cccc(C(F)(F)F)c2)[C@@H](c2cccc(NC(=O)/C=C/CN(C)C)c2)c2c(C)nn(-c3ccccc3)c21` (racemic) [Compound I-192] returned an Emax of 0 to 30%.

For the compound `CCN1C(=O)[C@H](NC(=O)c2cccc(C(F)(F)F)c2)[C@@H](c2ccccc2NC(=O)C(F)Cl)c2cnn(-c3ccccc3)c21` (mixture of isomers) [Compound I-174], the Emax is 0 to 30%.

`CC#CC(=O)Nc1cccc([C@H]2c3c(C)nn(-c4ccccc4)c3N(CC)C(=O)[C@@H]2NC(=O)c2cccc(C(F)(F)F)c2)c1` (racemic) [Compound I-193] returned an Emax of 30 to 80%.

The compound `C/C=C/C(=O)Nc1ccccc1[C@H]1c2cnn(-c3ccccc3)c2N(CC)C(=O)[C@@H]1NC(=O)c1cccc(C(F)(F)F)c1` (racemic) [Compound I-189] had an Emax of 0 to 30%.

For the compound `CCN1C(=O)[C@H](NC(=O)c2cccc(C(F)(F)F)c2)[C@@H](c2ccccc2NC(=O)CCl)c2cnn(-c3ccccc3)c21` [Compound I-178, N-((4S,5R)-4-(2-(2-chloroacetamido)phenyl)-7-ethyl-6-oxo-1-phenyl-4,5,6,7-tetrahydro-1H-pyrazolo[3,4-b]pyridin-5-yl)-3-(trifluoromethyl)benzamide], the “% Adduct Formation (MS Emax)” value is “+ (MS Emax % adduct formation greater than or equal to 0.0 and less than or equal to 30.0)”.

The compound `CCN1C(=O)[C@H](NC(=O)c2cccc(C(F)(F)F)c2)[C@@H](c2ccccc2NC(=O)/C=C/CN2CCOCC2)c2cnn(-c3ccccc3)c21` (racemic) [Compound I-176] gave an Emax of 0 to 30%.

In turn, `CCN1C(=O)[C@H](NC(=O)c2cccc(C(F)(F)F)c2)[C@@H](c2ccccc2NC(=O)COc2c(F)c(F)cc(F)c2F)c2cnn(-c3ccccc3)c21` (racemic) [Compound I-200] yielded an Emax of 0 to 30%.

For `CCN1C(=O)[C@@H](NC(=O)c2cccc(C(F)(F)F)c2)[C@@H](c2cccc(NS(=O)(=O)CCl)c2)c2c(C)nn(-c3ccccc3)c21` (racemic) [Compound I-184], the Emax fell in the range of 0 to 30%.

Regarding `CCN1C(=O)[C@H](NC(=O)c2cccc(C(F)(F)F)c2)[C@@H](c2ccccc2NC(=O)CCl)c2cnn(-c3ccccc3)c21` (racemic) [Compound I-170], the “% Adduct Formation (MS Emax)” value was “+++ (MS Emax % adduct formation greater than 80.0 and less than or equal to 100.0)”.

What is called Emax is the maximal effect, on the per cent scale that the assay sets.

The record behind these values is patent publication US12435087B2, “Modulators of DCN-1 and methods of use thereof” (Cellarity, Inc., priority 2023, dated 2025).
